From the NIST ThermoML archive (doi:10.1016/j.jct.2016.03.026)

Experiment: xn = mol fraction of the nth substance listed
Conditions: 283.15 K, Fluid (supercritical or subcritical phases), Vibrating tube method, x1 = 0.97

O=C=O [carbon dioxide] + CO
Conditions	mass density [kg/m3]
10450 kPa	927.45
10475 kPa	927.61
10500 kPa	927.78
10525 kPa	927.92
10550 kPa	928.1
10575 kPa	928.27
10600 kPa	928.46
10625 kPa	928.66
10650 kPa	928.76
10675 kPa	928.84
10700 kPa	929
10725 kPa	929.16
10750 kPa	929.25
10775 kPa	929.45
10800 kPa	929.62
10825 kPa	929.74
10850 kPa	929.88
10875 kPa	930.06
10900 kPa	930.27
10925 kPa	930.41
10950 kPa	930.57
10975 kPa	930.73
11000 kPa	930.89
11025 kPa	931.03
11050 kPa	931.19
11075 kPa	931.33
11100 kPa	931.58
11125 kPa	931.69
11150 kPa	931.86
11175 kPa	932.02
11200 kPa	932.18
11225 kPa	932.34
11250 kPa	932.51
11275 kPa	932.67
11300 kPa	932.9
11325 kPa	933.08
11350 kPa	933.16
11375 kPa	933.37
11400 kPa	933.49
11425 kPa	933.66
11450 kPa	933.88
11475 kPa	933.98
11500 kPa	934.17
11525 kPa	934.39
11550 kPa	934.47
11575 kPa	934.64
11600 kPa	934.8
11625 kPa	934.96
11650 kPa	935.12
11675 kPa	935.29
11700 kPa	935.45
11725 kPa	935.61
11750 kPa	935.78
11775 kPa	935.94
11800 kPa	936.1
11825 kPa	936.26
11850 kPa	936.43
11875 kPa	936.59
11900 kPa	936.74
11925 kPa	936.92
11950 kPa	937.07
11975 kPa	937.23
12000 kPa	937.33
12025 kPa	937.53
12050 kPa	937.68
12075 kPa	937.82
12100 kPa	937.98
12125 kPa	938.14
12150 kPa	938.31
12175 kPa	938.47
12200 kPa	938.63
12225 kPa	938.8
12250 kPa	938.96
12275 kPa	939.1
12300 kPa	939.21
12325 kPa	939.37
12350 kPa	939.53
12375 kPa	939.7
12400 kPa	939.86
12425 kPa	940.02
12450 kPa	940.19
12475 kPa	940.27
12500 kPa	940.45
12525 kPa	940.59
12550 kPa	940.76
12575 kPa	940.92
12600 kPa	941.08
12625 kPa	941.25
12650 kPa	941.41
12675 kPa	941.57
12700 kPa	941.74
12725 kPa	941.87
12750 kPa	942.06
12775 kPa	942.16
12800 kPa	942.34
12825 kPa	942.47
12850 kPa	942.63
12875 kPa	942.8
12900 kPa	942.96
12925 kPa	943.13
12950 kPa	943.22
12975 kPa	943.37
13000 kPa	943.53
13025 kPa	943.7
13050 kPa	943.86
13075 kPa	944.02
13100 kPa	944.17
13125 kPa	944.27
13150 kPa	944.43
13175 kPa	944.59
13200 kPa	944.76
13225 kPa	944.92
13250 kPa	945.05
13275 kPa	945.17
13300 kPa	945.33
13325 kPa	945.49
13350 kPa	945.66
13375 kPa	945.77
13400 kPa	945.9
13425 kPa	946.06
13450 kPa	946.23
13475 kPa	946.39
13500 kPa	946.47
13525 kPa	946.63
13550 kPa	946.8
13575 kPa	946.94
13600 kPa	947.04
13625 kPa	947.2
13650 kPa	947.37
13675 kPa	947.53
13700 kPa	947.69
13725 kPa	947.78
13750 kPa	947.94
13775 kPa	948.1
13800 kPa	948.24
13825 kPa	948.4
13850 kPa	948.51
13875 kPa	948.67
13900 kPa	948.84
13925 kPa	948.95
13950 kPa	949.1
13975 kPa	949.24
14000 kPa	949.41
14025 kPa	949.51
14050 kPa	949.65
14075 kPa	949.82
14100 kPa	949.98
14125 kPa	950.11
14150 kPa	950.22
14175 kPa	950.39
14200 kPa	950.55
14225 kPa	950.7
14250 kPa	950.8
14275 kPa	950.96
14300 kPa	951.12
14325 kPa	951.2
14350 kPa	951.37
14375 kPa	951.51
14400 kPa	951.61
14425 kPa	951.77
14450 kPa	951.93
14475 kPa	952.09
14500 kPa	952.19
14525 kPa	952.37
14550 kPa	952.51
14575 kPa	952.59
14600 kPa	952.75
14625 kPa	952.93
14650 kPa	953.08
14675 kPa	953.17
14700 kPa	953.32
14725 kPa	953.48
14750 kPa	953.62
14775 kPa	953.73
14800 kPa	953.88
14825 kPa	954.02
14850 kPa	954.14
14875 kPa	954.28
14900 kPa	954.41
14925 kPa	954.57
14950 kPa	954.68
14975 kPa	954.79
15000 kPa	954.95
15025 kPa	955.09
15050 kPa	955.2
15075 kPa	955.36
15100 kPa	955.44
15125 kPa	955.6
15150 kPa	955.77
15175 kPa	955.88
15200 kPa	956.01
15225 kPa	956.18
15250 kPa	956.27
15275 kPa	956.42
15300 kPa	956.56
15325 kPa	956.66
15350 kPa	956.78
15375 kPa	956.93
15400 kPa	957.07
15425 kPa	957.17
15450 kPa	957.32
15475 kPa	957.47
15500 kPa	957.56
15525 kPa	957.72
15550 kPa	957.84
15575 kPa	957.97
15600 kPa	958.13
15625 kPa	958.22
15650 kPa	958.37
15675 kPa	958.52
15700 kPa	958.62
15725 kPa	958.78
15750 kPa	958.89
15775 kPa	959.05
15800 kPa	959.19
15825 kPa	959.3
15850 kPa	959.43
15875 kPa	959.55
15900 kPa	959.71
15925 kPa	959.84
15950 kPa	959.94
15975 kPa	960.09
16000 kPa	960.25
16025 kPa	960.33
16050 kPa	960.49
16075 kPa	960.6
16100 kPa	960.74
16125 kPa	960.89
16150 kPa	960.98
16175 kPa	961.15
16200 kPa	961.23
16225 kPa	961.39
16250 kPa	961.53
16275 kPa	961.63
16300 kPa	961.74
16325 kPa	961.89
16350 kPa	962.02
16375 kPa	962.15
16400 kPa	962.28
16425 kPa	962.42
16450 kPa	962.53
16475 kPa	962.61
16500 kPa	962.78
16525 kPa	962.86
